“Also recorded” adds a separate entry of the source.

The test system of one data set is mTORC1 signaling. Put plainly: mSc-TOSI mTORC1 signaling assay (FACS) in K562 cells. It counts as cell-based, human. As for the experimental part:
(A) Schematic representation of the mScarlet-I mTOR Signaling Indicator (mSc-TOSI) degradation under mTORC1 signaling. (B) mSc-TOSI fluorescence intensity in bulk populations of K562 cells stably expressing the mTORC1 signaling reporter. Where indicated, cells were treated with the indicated concentration of mTOR inhibitor for 24 hours before FACS analysis.
(A) Schematic representation of the mScarlet-I mTOR Signaling Indicator (mSc-TOSI) degradation under mTORC1 signaling. (B) mSc-TOSI fluorescence intensity in homozygous single cell-derived K562 clones harboring the MTOR-F2108L mutation with or without targeted CAR integration. Single cell-derived K562 clones were isolated in methylcellulose-based semi-solid RPMI media supplemented with 100 μM ouabain. Where indicated, cells were treated with the indicated concentration of mTOR inhibitor for 24 hours before FACS analysis.
Active mTORC1 signaling results in rapid phosphorylation of the mSc-TOSI phosphodegron by S6K, ubiquitination, and degradation by the proteasome while its inhibition stabilizes the reporter.
The percentage of fluorescent cells was quantified using a BD LSRII flow cytometer and 1×10^5 cells were analyzed for each condition. […] For mTORC1 signaling assays, cells were treated with the indicated concentration of rapamycin or AZD8055 for 24 hours before analysis. FACS sorting was performed using a BD FACS Aria Fusion flow cytometer for the saturation prime editing experiment and 5×10^5 cells were sorted for each condition. Flow cytometric data visualization and analysis were performed using FlowJo™ software (Tree Star).
We then adapted a fluorescent mTORC1 signaling indicator^34 (mSc-TOSI) to assess the impact of rapamycin on mTORC1 signaling after targeted transgene integration to the MTOR locus. Active mTORC1 signaling results in rapid phosphorylation of the mSc-TOSI phosphodegron by S6K, ubiquitination, and degradation by the proteasome while its inhibition stabilizes the reporter^34 (FIG. 5A). We treated bulk populations of cells harboring the MTOR-F2108L mutation with or without targeted therapeutic transgene integration at the MTOR locus with different concentrations of rapamycin and AZD8055, a second-generation mTOR inhibitor.

Data set [1] concerns metastatic anaplastic thyroid carcinoma. Conditions: patient with metastatic anaplastic thyroid carcinoma; cited from earlier work.
The next data set has as its system K562 cells. Put plainly: K562 cell growth in the presence of rapamycin. Type of data set: cell-based, human. As for the experimental part: (A) Prime editing and small indels quantification at MTOR as determined by BEAT and TIDE analysis from Sanger sequencing. K562 cells stably expressing the mSc-TOSI reporter were transfected with 0.75 μg of pCMV-PEmax vector, 0.25 μg of epegRNA (tevopreQ1) vector, and 0.1 μg of nick sgRNA vector. Genomic DNA was harvested 3 days post-transfection (before selection) and cells were treated (rapamycin) or not (vehicle) with 0.5 μM rapamycin until all non-resistant cells were eliminated.
K562 cells were obtained from the ATCC (CCL-243) and NALM6 cells stably transduced to express a FLUC-T2A-RFP-IRES-Puro reporter gene cassette (Biosettia). K562 and NALM6 cells were maintained at 37° C. under 5% CO2 in RPMI medium supplemented with 10% FBS, penicillin-streptomycin, and GlutaMAX. Cells were routinely tested for the absence of mycoplasma contamination. Rapamycin (Cayman Chemicals, Cat 53123-88-9) was dissolved at 10 mg/mL in DMSO, working dilutions were prepared in water and stored at −20° C. AZD8055 ([…] Technologies) was dissolved at 10 mM in DMSO, working dilutions were prepared in water and stored at −20° C. DMSO alone was diluted in water and used as vehicle control. Ouabain octahydrate (Sigma) was dissolved at […] in hot water, working dilutions were prepared in water and stored at −20° C. K562 cells (2×10^5 cells/transfection) were transfected using a Lonza 4D Nucleofector™ with a SF nucleofection kit (Lonza) following manufacturer's recommendations with the indicated DNA concentrations. Cells were treated with the indicated concentration of rapamycin 3 days post-nucleofection until all non-resistant cells were eliminated. For the isolation of single cell-derived clones, simultaneous coselection and cloning was performed in methylcellulose-based semi-solid RPMI medium supplemented with 100 μM ouabain for 10 days.
We then designed epegRNAs to validate the new MTOR-F2108 mutations individually. […] These observations confirmed that the five new mutations identified by saturation prime editing conferred resistance to rapamycin.

Data set [2] concerns MTOR locus. Put plainly: F2108L edited alleles in CD3+ T cells after rapamycin selection, TIDER. It counts as cell-based, human. Conditions: 2 μg dsDNA donor, after rapamycin selection 15 days. The text has this: (A) Strategy for the CRISPR-driven insertion of the F2108L mutation to the MTOR locus using a linear double-stranded DNA (dsDNA) donor. (B) Schematic representation of the SpCas9 target site and the dsDNA donor sequence harboring the F2108L and PAM mutations (WT sequence: 5′ portion corresponds to SEQ ID NO: 45 and 3′ portion corresponds to SEQ ID NO: 46; G49 donor: 5′ portion corresponds to SEQ ID NO: 47 and 3′ portion corresponds to SEQ ID NO: 48). […] The percentage of edited alleles was quantified by TIDER after selection.
Receptor dimerization is induced with rapamycin. […] HA, homology arm. PA, polyadenylation signal. EGFP, enhanced green fluorescent protein. 2A self-cleaving peptide.
dsDNA donors were produced as described previously^24. The donor sequences were cloned into a cloning vector and PCR amplification (25 cycles) was performed using Kapa-HiFi polymerase. DNA purification was performed by solid-phase reversible immobilization using AMPure XP (Beckman Coulter) magnetic beads. […]
Genomic DNA was extracted with QuickExtract DNA extraction solution (EpiCentre) following manufacturer's recommendations. […] Sanger sequencing was performed on PCR amplicons to quantify the percentage of edited alleles using TIDE and TIDER^28,29. […]

For data set [3], the system named is MTOR locus. Put plainly: Transgene knock-in at MTOR in CD3+ T cells, FACS quantification. Type of data set: cell-based, human. The text has this:
(A) Strategy for CRISPR-driven mScarlet-I gene knock-in to the MTOR locus using a linear double-stranded DNA (dsDNA) donor. […] The percentage of cells expressing the mScarlet-I reporter was quantified by FACS after selection. HA, homology arm. PA, polyadenylation signal. EGFP, enhanced green fluorescent protein. 2A self-cleaving peptide.
(A) Strategy for the CRISPR-driven CAR-2A-EGFP gene knock-in to the MTOR locus using a linear double-stranded DNA (dsDNA) donor. […] The percentage of cells expressing the EGFP reporter was quantified by FACS after selection. HA; homology arm. PA; polyadenylation signal. EGFP; enhanced green fluorescent protein. 2A self-cleaving peptide.
The percentage of cells expressing the EGFP reporter was quantified by FACS after selection. HA, homology arm. PA, polyadenylation signal. EGFP, enhanced green fluorescent protein. 2A self-cleaving peptide.
dsDNA donors were produced as described previously^24. The donor sequences were cloned into a cloning vector and PCR amplification (25 cycles) was performed using Kapa-HiFi polymerase. DNA purification was performed by solid-phase reversible immobilization using AMPure XP (Beckman Coulter) magnetic beads. For ribonucleoprotein complex (RNP) formulation, 100 pmols of sgRNAs (IDT) were mixed with 0.8 μL of 100 mg/mL polyglutamic acid (Sigma) and 50 pmols of SpCas9 nuclease (IDT), as previously described^27. The RNP mix was incubated at 37° C. for 10 minutes and the dsDNA donors were added to the mix and incubated at room temperature for 5 minutes before transfection. Primary CD3^+ T cells (1×10^6 cells/transfection) were transfected using a Lonza 4D Nucleofector™ with a P3 nucleofection kit (Lonza) following manufacturer's recommendations with the indicated DNA concentrations. CD3+ T cells were resuspended in 80 μL media without IL-2 directly after nucleofection and incubated at 37° C. for 15 minutes before transfer into culture media plates. For AAV6 transduction, CD3+ T cells were resuspended in 80 μL media directly after nucleofection and AAV6 vectors were added. Cells were incubated at 37° C. for 8 hours at high cell density before transfer into culture media plates.
The percentage of fluorescent cells was quantified using a BD LSRII flow cytometer and 1×10^5 cells were analyzed for each condition. For antibody staining, K562 cells were incubated with Fc receptor block (eBioscience Cat 16-9161-73) for 20 minutes on ice with PBS and 3% human serum (Sigma). Anti-human CD34 Alexa Fluor 488-conjugated antibody clone QBEnd10 (R and D systems Cat FAB7227G) and anti-human CD52 FITC-conjugated antibody clone HI186 were used for RQR8 and CD52 quantification, respectively. For mTORC1 signaling assays, cells were treated with the indicated concentration of rapamycin or AZD8055 for 24 hours before analysis. […]

Data set [4] deals with MTOR locus. Put plainly: Transgene knock-in at MTOR in K562 cells, FACS quantification. Type of data set: cell-based, human. Conditions: Rapamycin-treated K562 cells, FACS with antibody staining. The procedure: (A) Strategy for the CRISPR-driven CAR-2A-EGFP gene knock-in to the MTOR locus using a plasmid donor. (B) K562 cells were transfected with 0.5 μg of SpCas9-sgRNA-expressing plasmid and 1 μg of donor plasmid. Cells were treated with 0.5 μM rapamycin 3 days post-transfection until all non-resistant cells were eliminated. The percentage of cells expressing the EGFP reporter was quantified by FACS after selection. HA; homology arm. PA; polyadenylation signal. EGFP; enhanced green fluorescent protein. 2A self-cleaving peptide.
(A) Strategy for the CRISPR-driven RQR8 gene knock-in to the MTOR locus using a plasmid donor. (B) K562 cells were transfected with 0.5 μg of SpCas9-sgRNA-expressing plasmid and 1 μg of donor plasmid harboring. […] The percentage of cells expressing the RQR8 epitope marker was quantified by FACS after selection using an Alexa Fluor 488-conjugated anti-human CD34 antibody. […] (D) Same as in B, but the percentage of cells expressing CD52 was quantified using a FITC-conjugated anti-human CD52 antibody. […]
The percentage of fluorescent cells was quantified using a BD LSRII flow cytometer and 1×10^5 cells were analyzed for each condition. […] Anti-human CD34 Alexa Fluor 488-conjugated antibody clone QBEnd10 (R and D systems Cat FAB7227G) and anti-human CD52 FITC-conjugated antibody clone HI186 were used for RQR8 and CD52 quantification, respectively. […]

Turning to `COc1ccc(-c2ccc3c(N4CCOC[C@@H]4C)nc(N4CCOC[C@@H]4C)nc3n2)cc1CO` [AZD8055], the “sensitivity of mTORC1 signaling to inhibitor” value in the data set with mTORC1 signaling (CRISPR-engineered K562 cells harboring MTOR-F2108L, 24 hours) is listed as “remained sensitive”.

Regarding `CO[C@H]1C[C@@H]2CC[C@@H](C)[C@@](O)(O2)C(=O)C(=O)N2CCCC[C@H]2C(=O)O[C@H]([C@H](C)C[C@@H]2CC[C@@H](OCCO)[C@H](OC)C2)CC(=O)[C@H](C)/C=C(\C)[C@@H](O)[C@@H](OC)C(=O)[C@H](C)C[C@H](C)/C=C/C=C/C=C/1C` [everolimus], in data set [1], the “response duration before relapse” value was 18 month.

For the compound `CO[C@H]1C[C@@H]2CC[C@@H](C)[C@@](O)(O2)C(=O)C(=O)N2CCCC[C@H]2C(=O)O[C@H]([C@H](C)C[C@@H]2CC[C@@H](O)[C@H](OC)C2)CC(=O)[C@H](C)/C=C(\C)[C@@H](O)[C@@H](OC)C(=O)[C@H](C)C[C@H](C)/C=C/C=C/C=C/1C` [rapamycin, Rapamycin], the mTORC1 signaling result is listed as “remained functional” in the data set on mTORC1 signaling (K562 cells after prime editing (F2108L) and selection, different concentrations of rapamycin); “complete rapamycin resistance” with mTORC1 signaling (K562 with F2108L mutation); “low levels of signaling” in the data set with mTORC1 signaling (K562 with F2108V and F2108K); “intermediate levels of signaling” in the data set on mTORC1 signaling (K562 with F21081, F2108M, and F2108G); “complete mTORC1 signaling inhibition” with mTORC1 signaling (K562 without epegRNA (pUC19) and with silent F2108F mutation); “remained completely functional” in the data set on mTORC1 signaling (MTOR-F2108L homozygous K562 clones with or without CAR integration, rapamycin treatment). Further, the mTORC1 signaling entry was “very low levels of mTORC1 signaling” in the data set with mTORC1 signaling (adenine base edited K562 cells, in the presence of rapamycin) and “functional mTORC1 signaling; also recorded: slight mTORC1 signaling decrease” with mTORC1 signaling (bulk K562 cells harboring MTOR-F2108L with or without transgene integration, 50 nM to 5 000 nM rapamycin, 24 hours). The “resistance of cells to rapamycin” value with K562 cells (ABE8e-targeted K562 cells) is given as “partial resistance”; with K562 cells (K562 cells with silent F2108F mutation, 0.5 μM rapamycin), “no resistance”. The cell growth result in the data set on K562 cells (K562 cells harboring MTOR-F2108 substitutions, 0.5 μM rapamycin) is reported as “grew robustly”.

For “G49: gRNA, MTOR-Intron 45, target AGGTAGGATCTTCAGGCTCC (SEQ ID NO: 6); used as SpCas9 RNP with donor (listed as DNA, chemistry not given here; listed as Homo sapiens)”, the “alleles harboring the F2108L mutation” value in the data set on MTOR locus [2] was “up to 63%”. The “alleles harboring the PAM mutation” value in the data set on MTOR locus [2] is ≤ 69%. The “percentage of CD3+ T cells expressing the mScarlet-I reporter” value in the data set with MTOR locus [3] (1 μg dsDNA donor, after rapamycin selection 8 days) was 21%; with MTOR locus [3] (1 μg dsDNA donor, without selection), 11%; in the data set on MTOR locus [3] (2 μg dsDNA donor, after rapamycin selection 8 days), 31%; in the data set on MTOR locus [3] (2 μg dsDNA donor, without selection), 18%.

“RQR8: 136-amino-acid epitope-based marker/suicide gene targeted to MTOR with plasmid donor (SEQ ID NO: 26)”: the transgene expression result in the data set with MTOR locus [4] was “higher transgene expression”.

Values taken from patent US20240352487A1, “MTOR -TARGETED MODIFICATION AND USES THEREOF” (UNIVERSITÉ LAVAL, priority 2021, published 2024).
